Several values for one entry are separate records, joined by “and”; a condition that tells them apart may be missing. Equal entries are not always repeated. Toxic doses and inconclusive results are not listed.

The test system of this assay is P388 leukemia ip, CD2F1 mice, survival T/C. Kind of assay: NCI In Vivo Anticancer Drug Screen. Data for tumor model P388 Leukemia (intraperitoneal) in CD2F1 (CDF1) mice. The note with it: endpoint: median survival time, higher = longer survival. In outline: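 Mice carrying the transplanted tumor received test compound or vehicle. Survival was recorded in each group, and the value is the treated-group measurement divided by that of the vehicle-treated control group.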

Where [1] appears, read: dose: 50.0 mg/kg/injection, schedule: Q01DX005 (ip), vehicle: saline with Tween-80.
[2] abbreviates: dose: 100.0 mg/kg/injection, schedule: Q01DX005 (ip), vehicle: saline with Tween-80.
The mark [3] stands for this setting: dose: 200.0 mg/kg/injection, schedule: Q01DX005 (ip), vehicle: saline with Tween-80.
[4] abbreviates: dose: 50.0 mg/kg/injection, schedule: Q01DX009 (ip), vehicle: Klucel (hydroxypropylcellulose) (HPC).
Where [5] appears, read: dose: 100.0 mg/kg/injection, schedule: Q01DX009 (ip), vehicle: Klucel (hydroxypropylcellulose) (HPC).
[6] abbreviates: dose: 60.0 mg/kg/injection, schedule: Q01DX005 (ip), vehicle: saline with Tween-80.
Where [7] appears, read: dose: 50.0 mg/kg/injection, schedule: Q01DX005 (ip), vehicle: Klucel (hydroxypropylcellulose) (HPC).
Setting [8] is: dose: 100.0 mg/kg/injection, schedule: Q01DX005 (ip), vehicle: Klucel (hydroxypropylcellulose) (HPC).
Where [9] appears, read: dose: 12.5 mg/kg/injection, schedule: Q01DX005 (ip), vehicle: saline with Tween-80.
The mark [10] stands for this setting: dose: 25.0 mg/kg/injection, schedule: Q01DX005 (ip), vehicle: saline with Tween-80.
Setting [11] is: dose: 3.12 mg/kg/injection, schedule: Q01DX005 (ip), vehicle: Klucel (hydroxypropylcellulose) (HPC).
Setting [12] is: dose: 6.25 mg/kg/injection, schedule: Q01DX005 (ip), vehicle: Klucel (hydroxypropylcellulose) (HPC).
Setting [13] is: dose: 100.0 mg/kg/injection, schedule: Q04DX003 (ip), vehicle: saline with Tween-80.
The mark [14] stands for this setting: dose: 200.0 mg/kg/injection, schedule: Q04DX003 (ip), vehicle: saline with Tween-80.
[15] abbreviates: dose: 400.0 mg/kg/injection, schedule: Q04DX003 (ip), vehicle: saline with Tween-80.
[16] abbreviates: dose: 100.0 mg/kg/injection, schedule: Q01DX009 (ip), vehicle: saline with Tween-80.
Setting [17] is: dose: 200.0 mg/kg/injection, schedule: Q01DX005 (ip), vehicle: Klucel (hydroxypropylcellulose) (HPC).
[18] abbreviates: dose: 12.5 mg/kg/injection, schedule: Q01DX005 (ip), vehicle: Klucel (hydroxypropylcellulose) (HPC).
Setting [19] is: dose: 25.0 mg/kg/injection, schedule: Q01DX005 (ip), vehicle: Klucel (hydroxypropylcellulose) (HPC).
Setting [20] is: dose: 50.0 mg/kg/injection, schedule: Q01DX009 (ip), vehicle: saline with Tween-80.
Setting [21] is: dose: 12.5 mg/kg/injection, schedule: Q01DX009 (ip), vehicle: Klucel (hydroxypropylcellulose) (HPC).
Where [22] appears, read: dose: 25.0 mg/kg/injection, schedule: Q01DX009 (ip), vehicle: Klucel (hydroxypropylcellulose) (HPC).
The mark [23] stands for this setting: dose: 200.0 mg/kg/injection, schedule: Q01DX009 (ip), vehicle: saline with Tween-80.

Turning to `CCCC1OCC(O)C(C(O)C(=O)CN(Cc2ccccc2)Cc2ccccc2)O1` (stereo not drawn), the T/C by setting is: under setting [1], 100 % of control; under setting [2], 98 % of control; under setting [3], 98 % of control.
For the molecule `O=C(N/N=C/c1ccccc1O)c1cccc([N+](=O)[O-])c1`, the T/C by setting is: (dose: 100.0 mg/kg/injection, schedule: Q01DX009 (ip), vehicle: saline) 99 % of control; (dose: 200.0 mg/kg/injection, schedule: Q01DX009 (ip), vehicle: saline) 100 % of control; (dose: 400.0 mg/kg/injection, schedule: Q01DX009 (ip), vehicle: saline) 91 % of control.
Take `ClC12CCC(c3ccccc3)(CC1)CC2`: the T/C by setting is: under setting [4], 105 % of control; under setting [5], 108 % of control; (dose: 200.0 mg/kg/injection, schedule: Q01DX009 (ip), vehicle: Klucel (hydroxypropylcellulose) (HPC)) 99 % of control.
In the case of `CC(CN(C)C)C(=O)/C=C/c1c(Cl)cccc1Cl` (stereo not drawn), the T/C under setting [6] was 111 % of control.
As for `COc1cc(C2c3cc(O)c(OC)cc3CC(C(N)=O)C2CO)ccc1O` (stereo not drawn), the T/C is 100 % of control under setting [1], 100 % of control under setting [2] and 98 % of control under setting [3].
For `CCNC1CCC(Nc2ccnc3cc(Cl)ccc23)CC1` (stereo not drawn), the T/C is 95 % of control under setting [7] and 87 % of control under setting [8].
Turning to `CN(C)CCCN1c2ccccc2Cc2ccccc21`, the T/C reads like this: under setting [9], 111 % of control; under setting [10], 108 % of control; under setting [1], 100 % of control and 111 % of control; under setting [2], 114 % of control.
On to `COC(=O)[CH2][Sn]([CH2]C(=O)OC)([CH]1CCCCC1)[CH]1CCCCC1`, for which the T/C (dose: 1.56 mg/kg/injection, schedule: Q01DX005 (ip), vehicle: Klucel (hydroxypropylcellulose) (HPC)) was 104 % of control; the T/C under setting [11] is 88 % of control; the T/C under setting [12] is 111 % of control and 88 % of control.
As for `CC1CC2Oc3ccc(Cl)cc3C(=O)N2O1` (stereo not drawn), the T/C is, setting by setting: (dose: 7.5 mg/kg/injection, schedule: Q01DX009 (ip), vehicle: saline) 115 % of control; (dose: 15.0 mg/kg/injection, schedule: Q01DX009 (ip), vehicle: saline) 113 % of control; (dose: 30.0 mg/kg/injection, schedule: Q01DX009 (ip), vehicle: saline) 104 % of control.
With `CCc1ccccc1NC(=O)C(=O)CC(=O)c1ccc(Cl)s1`, the T/C is 100 % of control (dose: 100.0 mg/kg/injection, schedule: Q04DX002 (ip), vehicle: saline with Tween-80); 102 % of control (dose: 200.0 mg/kg/injection, schedule: Q04DX002 (ip), vehicle: saline with Tween-80); 103 % of control (dose: 400.0 mg/kg/injection, schedule: Q04DX002 (ip), vehicle: saline with Tween-80).
As for `OCc1ccc2ccc3ccc(CO)nc3c2n1`, the T/C is, setting by setting: under setting [9], 97 % of control; under setting [10], 111 % of control; under setting [1], 104 % of control and 109 % of control; under setting [2], 113 % of control.
Consider `Cc1ccccc1C(=O)c1cnc(C)n1Cc1ccccc1`, for which the T/C is, setting by setting: under setting [6], 96 % of control; (dose: 120.0 mg/kg/injection, schedule: Q01DX005 (ip), vehicle: saline with Tween-80) 98 % of control; (dose: 240.0 mg/kg/injection, schedule: Q01DX005 (ip), vehicle: saline with Tween-80) 98 % of control.
On to `CS(C)=Nc1ccc(Cl)cc1`, for which the T/C (dose: 100.0 mg/kg/injection, schedule: Q01DX001 (ip), vehicle: saline) was 109 % of control.
For the molecule `C=CCc1cc(OC)c(OCC(=O)O)c(OC)c1`, the T/C runs as follows: (dose: 100.0 mg/kg/injection, schedule: Q04DX003 (ip), vehicle: Klucel (hydroxypropylcellulose) (HPC)) 98 % of control; (dose: 200.0 mg/kg/injection, schedule: Q04DX003 (ip), vehicle: Klucel (hydroxypropylcellulose) (HPC)) 109 % of control.
As to `COc1ccc(-c2nc3c(=O)[nH]c(=O)n(C)c3nc2-c2ccc(OC)c(OC)c2)cc1OC`, the T/C (dose: 100.0 mg/kg/injection, schedule: Q04DX002 (ip), vehicle: Klucel (hydroxypropylcellulose) (HPC)) is 97 % of control; the T/C (dose: 200.0 mg/kg/injection, schedule: Q04DX002 (ip), vehicle: Klucel (hydroxypropylcellulose) (HPC)) is 100 % of control; the T/C (dose: 400.0 mg/kg/injection, schedule: Q04DX002 (ip), vehicle: Klucel (hydroxypropylcellulose) (HPC)) is 100 % of control.
For `Cc1ccc(-c2nc(N)sc2N=Nc2ccc(Cl)cc2Cl)cc1`, the T/C was 96 % of control (dose: 60.0 mg/kg/injection, schedule: Q01DX005 (ip), vehicle: Klucel (hydroxypropylcellulose) (HPC)); 96 % of control (dose: 120.0 mg/kg/injection, schedule: Q01DX005 (ip), vehicle: Klucel (hydroxypropylcellulose) (HPC)); 97 % of control (dose: 240.0 mg/kg/injection, schedule: Q01DX005 (ip), vehicle: Klucel (hydroxypropylcellulose) (HPC)).
With `CC=C(/C(=C/C)c1ccc(O)cc1)c1ccc(O)cc1`, the T/C runs as follows: (dose: 66.0 mg/kg/injection, schedule: Q01DX009 (ip), vehicle: saline with Tween-80) 120 % of control; under setting [13], 100 % of control; under setting [14], 100 % of control; under setting [15], 90 % of control.
Consider `NC(C(=O)O)C(N)C(=O)O` (stereo not drawn), for which the T/C reads like this: under setting [16], 90 % of control; (dose: 400.0 mg/kg/injection, schedule: Q01DX009 (ip), vehicle: saline with Tween-80) 100 % of control.
As for `COc1ccc2c(c1OC)C(=O)OC2`, the T/C by setting is: under setting [7], 90 % of control; under setting [8], 90 % of control; under setting [17], 90 % of control.
For the molecule `C[C@@H]1C[C@H]2C(=CC1=O)CC[C@@H]1[C@@H]2CC[C@]2(C)[C@@H](O)CC[C@@H]12`, the T/C reads like this: under setting [13], 100 % of control; under setting [14], 109 % of control; under setting [15], 100 % of control.
For `CCNC1(N(C)C)N=C(N(C)C)N=C(N(C)C)O1` (stereo not drawn), the T/C runs as follows: (dose: 50.0 mg/kg/injection, schedule: Q01DX005 (ip), vehicle: saline) 96 % of control; (dose: 100.0 mg/kg/injection, schedule: Q01DX005 (ip), vehicle: saline) 96 % of control.
`Nc1ncc(NCCCNc2ccc(C(=O)NC(CCC(=O)O)C(=O)O)cc2)c(=O)[nH]1` (stereo not drawn): the T/C under setting [12] was 100 % of control and 102 % of control; the T/C under setting [18] is 100 % of control and 102 % of control; the T/C under setting [19] was 99 % of control and 104 % of control; the T/C under setting [7] is 102 % of control and 98 % of control; the T/C under setting [8] was 99 % of control and 103 % of control; the T/C under setting [17] is 100 % of control and 102 % of control.
For `c1ccc2nc3ccccc3nc2c1`, the T/C by setting is: under setting [19], 109 % of control; under setting [7], 104 % of control; under setting [8], 104 % of control; under setting [17], 104 % of control.
Take `CC(=O)SCc1nc2ccccc2[nH]1`: the T/C was 107 % of control (dose: 25.0 mg/kg/injection, schedule: Q01DX009 (ip), vehicle: saline with Tween-80); 105 % of control under setting [20]; 108 % of control under setting [16].
For the molecule `CC(=O)NC(CCc1ccc(Cl)c(Cl)c1)c1cccc(O)c(=O)c1` (stereo not drawn), the T/C is 105 % of control and 110 % of control under setting [21]; 106 % of control and 122 % of control under setting [22].
Consider `O=C1CCCC/C1=C\N(c1ccccc1)c1ccccc1`, for which the T/C runs as follows: under setting [20], 106 % of control; under setting [16], 98 % of control; under setting [23], 95 % of control.
With `CC(=O)CCC(=O)c1ccoc1`, the T/C was 94 % of control under setting [11]; 103 % of control under setting [12]; 100 % of control under setting [18]; 102 % of control and 95 % of control under setting [19].
`O=C1CCC([N+](=O)[O-])C(c2ccccc2)N1` (stereo not drawn): the T/C under setting [20] is 100 % of control.
As for `COc1ccc2c(C)cc(OC)nc2c1`, the T/C was 94 % of control under setting [20], 91 % of control under setting [16] and 97 % of control under setting [23].
Consider `O=C(CCl)Nc1ccccc1S(=O)(=O)F`, for which the T/C by setting is: under setting [21], 100 % of control; under setting [22], 107 % of control; under setting [4], 96 % of control; under setting [5], 107 % of control.

The values above are taken from PubChem BioAssay AID330 (DTP/NCI, 2004).
